This is an account of results in US6395913B1, “Recovery and purification of 3,4-epoxy-1-butene” (Eastman Chemical Company, priority 2001, dated 2002).

Holding throughout (assay type): physicochemical
Series [1] can be described thus: Extraction affinity of water-immiscible solvents: distribution coefficients against a standard water/3-buten-1,2-diol/epoxybutene solution. Particulars: room temperature; for Distribution Coefficients Epoxy-Butene: 1 part solvent : 1 part standard solution (35% water/65% diol with approx. 10 wt% epoxybutene), GC analysis, ONE PHASE = no phase separation; for Distribution Coefficients Solvent / Distribution Coefficients Water / Distribution Coefficients Diol: 1 part solvent : 1 part standard water-diol-epoxybutene solution; for Distribution Coefficients Diol: diol = 3-buten-1,2-diol. The method, then: This example compares the extraction affinity of various water-immiscible solvents for epoxybutene in the presence of aqueous absorbent mixtures, as occurs in the extraction zone of both embodiments of this invention. A standard mixture of 35% water and 65% 3-buten-1,2-diol (diol) was prepared. […] For each candidate extractant solvent specified in Table 1, one part by weight water-immiscible solvent was added to one part standard water-diol-epoxybutene solution in a separatory funnel. The mixture was vigorously shaken, allowed to settle, then separated into two liquid phases at room temperature. The aqueous and organic layers from the decantation were analyzed by gas chromatography to determine the composition of each layer. From these compositions, distribution coefficients were calculated for epoxybutene, water, diol, and the candidate extractant as follows: [formula]

Series [2] can be described thus: Epoxybutene loss by reaction (hydrolysis) during continuous distillation. Particulars: for epoxybutene present in the feed reacted to form 1,2-diol and higher diol oligomers: about 1 bar. As for the experimental part:
The distillation was conducted in a silvered, vacuum-jacketed glass Oldershaw column, equipped with a liquid-dividing distillation head, feed tray, reflux magnet, reflux timer, cooling water condenser, jacketed reboiler, pressure gage, and nitrogen purge line. The column was configured with a 15-plate stripping section, a 10-plate rectifying section, and a 500 ml jacketed flask heated by a thermostatted circulating oil bath. Feed to the column was supplied from a 5-liter jacketed vessel via a piston pump and bottoms take-off was removed via a second piston pump. The bottoms product was cooled in a small water-chilled stainless steel heat exchanger placed in line on the suction side of the pump. The distillate product flowed by gravity to a jacketed cooled receiver, which also functioned as a phase decanter. Thermocouples were provided at the reboiler, and distillation head. The continuous run lasted about 12 hours in duration with a total feed of about 1192 grams. A reflux ratio of 1:1 was employed. The column was operated at about 1 bar absolute pressure. During steady state operation the average distillate composition comprised about 16% water, 84% epoxybutene, and less than 0.01% 1,2-diol. The distillate separated into two liquid phases upon settling. The average bottoms product comprised 59.2% water, less than 0.2% epoxybutene, and 39.9% 1,2-diol. Approximately 66% of the epoxybutene present in the feed reacted to form 1,2-diol and higher diol oligomers and 93% of the unreacted epoxybutene was recovered in the distillate.
The distillation was conducted in a silvered, vacuum-jacketed glass Oldershaw column, equipped with a liquid-dividing distillation head, feed tray, reflux magnet, reflux timer, cooling water condenser, jacketed reboiler, pressure gage, and nitrogen purge line. The column was configured with a 15-plate stripping section, a 10-plate rectifying section, and a 500 ml jacketed flask heated by a thermostatted circulating oil bath. Feed to the column was supplied from a 5-liter jacketed vessel via a piston pump and bottoms take-off was removed via a second piston pump. The product removed from the base of the column was cooled in a small water-chilled stainless steel heat exchanger placed in line on the suction side of the pump. The distillate product flowed by gravity to a jacketed cooled receiver, which also functioned as a phase decanter. Thermocouples were provided at the reboiler, and distillation head. The continuous run lasted about 10 hours in duration with a total feed of about 3028 grams. A reflux ratio of 3:1 was employed. The column was operated at about 1 bar absolute pressure. During steady state operation the average distillate composition comprised about 20.4% water, 79.4% epoxybutene, and less than 0.2% 1,2-diol. […]

Series [3] is described as follows: Rate of epoxybutene hydrolysis as a function of pH. An excerpt: Epoxybutene reacts readily with nucleophiles such as water and alcohols to form 3-butene-1,2-diol and glycol ethers, respectively. However, the relative rate of epoxybutene reaction with nucleophiles is a function of pH. Epoxybutene, like other epoxides, undergoes both acid and base catalysis. Acid catalysis has the larger influence on the rate of reaction. For example, the rate of epoxybutene hydrolysis is over 500 times greater at pH 3 than at pH 7. At pH 11, the rate is over 17 times greater than at pH 7. Since it is desirable to minimize epoxybutene losses due to reaction with nucleophiles, EpB reactivity can be reduced by maintaining the epoxybutene-laden solution at or near a pH of about 7 to 8. This can be done by adding a basic compound to the recovery system. Generally the process gas from the reactor contains ppm levels of formic acid and other organic acids. Thus, any basic material which is capable of neutralizing organic acids may be used in the present process. […]

The structures appear in SMILES notation.

For the compound `CCC(=O)CC` [3-Pentanone], the “Distribution Coefficients Epoxy-Butene” value in series [1] is reported as “ONE PHASE”.

For the compound `CCC(O)CC` [3-Pentanol], the “Distribution Coefficients Epoxy-Butene” value in series [1] is given as “ONE PHASE”.

`CC1COC(=O)O1` (stereo not drawn) [Propylene Carbonate]: in series [1], the “Distribution Coefficients Epoxy-Butene” value is “ONE PHASE”.

As to `c1ccc2c(c1)CCCC2` [1,2,3,4-Tetrahydronaphthalene], in series [1], the “Distribution Coefficients Epoxy-Butene” value stood at 1.91, the “Distribution Coefficients Solvent” value was found to be 51.8, the “Distribution Coefficients Water” value was found to be 0.010 and the “Distribution Coefficients Diol” value came out at 0.021.

Take `CCCCC(CC)CO` (stereo not drawn) [2-Ethylhexanol]: the “Distribution Coefficients Epoxy-Butene” value in series [1] is “ONE PHASE”.

`C=CC1CO1` (stereo not drawn) [epoxybutene, 3,4-epoxy-1-butene]: the “epoxybutene present in the feed reacted to form 1,2-diol and higher diol oligomers” value is given as “Approximately 66%” in series [2] (Comparative Example 1: distillation from 45.4% water, 9.1% epoxybutene, 45.5% 1,2-diol); “Less than 0.5%” in series [2] (Example 6: distillation from p-xylene extract); “Less than 0.4%” in series [2] (Example 7: distillation from isobutyl isobutyrate extract). In series [2] (Example 11: distillation of water-rich layer (96.92% water, 3.0% epoxybutene), feed pH 8 with K2CO3-H3PO4 buffer, 740 Torr), this compound gave a percent epoxybutene loss of 1.5%. For the same compound, the “rate of epoxybutene hydrolysis relative to pH 7” value is “over 500 times” in series [3] (pH 3 versus pH 7) and “over 17 times” in series [3] (pH 11 versus pH 7).

`Clc1ccccc1Cl` [1,2-Dichlorobenzene]: in series [1], the “Distribution Coefficients Epoxy-Butene” value came to 3.91, the “Distribution Coefficients Solvent” value came out at 54.4, the “Distribution Coefficients Water” value was determined as 0.002 and the “Distribution Coefficients Diol” value was 0.007.

For the compound `Cc1cccc2ccccc12` [1-Methylnaphthalene], in series [1], the “Distribution Coefficients Epoxy-Butene” value is 3.10, the “Distribution Coefficients Solvent” value stood at 101, the “Distribution Coefficients Water” value is listed as 0.002 and the “Distribution Coefficients Diol” value was 0.006.

Consider `CCCCCCCCCC` [n-Decane], for which, in series [1], the “Distribution Coefficients Epoxy-Butene” value is listed as 1.06, the “Distribution Coefficients Solvent” value was 1907, the “Distribution Coefficients Water” value was found to be 0.000 and the “Distribution Coefficients Diol” value worked out at 0.001.

Take `C[S+](C)[O-]` [Dimethylsulfoxide]: the “Distribution Coefficients Epoxy-Butene” value in series [1] was “ONE PHASE”.

`O=C1CCCCC1` [Cyclohexanone]: in series [1], the “Distribution Coefficients Epoxy-Butene” value is on record as “ONE PHASE”.

As to `CC(=O)CC(C)C` [Methyl Isobutyl Ketone], the “Distribution Coefficients Epoxy-Butene” value in series [1] is on record as “ONE PHASE”.

On to `CC1=CC(=O)CC(C)(C)C1` [Isophorone], for which, in series [1], the “Distribution Coefficients Epoxy-Butene” value was “ONE PHASE”.

Consider `C1CCCCC1` [Cyclohexane], for which, in series [1], the “Distribution Coefficients Epoxy-Butene” value is reported as 2.09, the “Distribution Coefficients Solvent” value was found to be 215, the “Distribution Coefficients Water” value is on record as 0.001 and the “Distribution Coefficients Diol” value is recorded as 0.000.

Turning to `CCCCCCC` [n-Heptane], in series [1], the “Distribution Coefficients Epoxy-Butene” value was found to be 1.93, the “Distribution Coefficients Solvent” value is on record as 851, the “Distribution Coefficients Water” value amounted to 0.001 and the “Distribution Coefficients Diol” value amounted to 0.001.

On to `CC(C)c1cccc(C(C)C)c1` [1,3-Diisopropylbenzene], for which, in series [1], the “Distribution Coefficients Epoxy-Butene” value was 1.92, the “Distribution Coefficients Solvent” value came to 329, the “Distribution Coefficients Water” value is given as 0.001 and the “Distribution Coefficients Diol” value is 0.004.

For the compound `COC(=O)c1ccccc1` [Methyl Benzoate], in series [1], the “Distribution Coefficients Epoxy-Butene” value turned out to be 2.84, the “Distribution Coefficients Solvent” value was 6.66, the “Distribution Coefficients Water” value is 0.076 and the “Distribution Coefficients Diol” value turned out to be 0.155.

With `COC(C)(C)C` [Methyl t-Butyl Ether], in series [1], the “Distribution Coefficients Epoxy-Butene” value was “ONE PHASE”.

In the case of `C=C(C)[C@H]1CC=C(C)CC1` [Limonene], in series [1], the “Distribution Coefficients Epoxy-Butene” value amounted to 2.28, the “Distribution Coefficients Solvent” value was found to be 352, the “Distribution Coefficients Water” value is 0.001 and the “Distribution Coefficients Diol” value came out at 0.003.

For `Cc1cccc(C)c1` [m-Xylene], in series [1], the “Distribution Coefficients Epoxy-Butene” value came out at 2.32, the “Distribution Coefficients Solvent” value is on record as 1479, the “Distribution Coefficients Water” value came out at 0.002 and the “Distribution Coefficients Diol” value was 0.005.

With `CCCC(C)=O` [2-Pentanone], in series [1], the “Distribution Coefficients Epoxy-Butene” value is recorded as “ONE PHASE”.

For the compound `Cc1ccc(C)cc1` [p-Xylene], in series [1], the “Distribution Coefficients Epoxy-Butene” value is 4.34, the “Distribution Coefficients Solvent” value is given as 368, the “Distribution Coefficients Water” value was 0.002 and the “Distribution Coefficients Diol” value is 0.005.

For the compound `CC(=O)OCCC(C)C` [Isopentyl Acetate], in series [1], the “Distribution Coefficients Epoxy-Butene” value turned out to be 2.80, the “Distribution Coefficients Solvent” value was determined as 25.6, the “Distribution Coefficients Water” value is on record as 0.073 and the “Distribution Coefficients Diol” value was found to be 0.181.

For the compound `CC(C)C(=O)OCC(C)(C)C(OC(=O)C(C)C)C(C)C` (stereo not drawn) [2,2,4-Trimethyl-1,3-Pentanediol Diisobutyrate], in series [1], the “Distribution Coefficients Epoxy-Butene” value amounted to 2.19, the “Distribution Coefficients Solvent” value came to 124, the “Distribution Coefficients Water” value is given as 0.012 and the “Distribution Coefficients Diol” value is on record as 0.027.

`CC(C)COC(=O)C(C)C` [Isobutyl isobutyrate]: in series [1], the “Distribution Coefficients Epoxy-Butene” value is on record as 3.49, the “Distribution Coefficients Solvent” value is 34.4, the “Distribution Coefficients Water” value amounted to 0.022 and the “Distribution Coefficients Diol” value was 0.065.

Regarding `COCC(C)OC(C)=O` (stereo not drawn) [2-Methoxy-1-Methylethyl Acetate], the “Distribution Coefficients Epoxy-Butene” value in series [1] was “ONE PHASE”.

In the case of `CCCCOC(=O)CC` [Butyl Propionate], in series [1], the “Distribution Coefficients Epoxy-Butene” value is given as 3.96, the “Distribution Coefficients Solvent” value stood at 14.1, the “Distribution Coefficients Water” value turned out to be 0.042 and the “Distribution Coefficients Diol” value turned out to be 0.115.

Take `ClC(Cl)Cl` [Chloroform]: in series [1], the “Distribution Coefficients Epoxy-Butene” value was determined as 8.73, the “Distribution Coefficients Solvent” value was 8.33, the “Distribution Coefficients Water” value stood at 0.024 and the “Distribution Coefficients Diol” value stood at 0.106.
